# Measurements taken from patent publication US11951171B2, “Polypeptide EXP and its drug delivery system as well as extracellular vesicle extraction” (TIANJIN MEDICAL UNIVERSITY, priority 2019, dated 2024).
# Tested on: C2C12 cells
# Assay: Binding stability: intracellular co-localization of peptides with exosomes (confocal microscopy, FRET)
# Format: cell-based, murine
# Protocol: The intracellular co-localization of CP05 and EXP with exosomes was examined with confocal microscopy at different timepoints. FAM-labeled CP05 and EXP were incubated with DiI-labeled exosomes and then added into C2C12 cells.
# The meanings of the signs in the figure are as follows: DAPI means staining result for nuclei by DAPI, Peptide(488,520) refers to the excitation and emission wavelength of FAM-labeled CP05 and EXP; EXO(Dil)(540,620) refers to the excitation and emission wavelength for DiI-labeled exosomes; Merge is the superposition of above three staining results; FRET means fluorescence resonance energy transfer. Optical energy resonance transfer is an energy transfer phenomenon between two fluorescent molecules that are very close to each other. When the emission spectrum of the donor fluorescent molecule overlaps with the absorption spectrum of the acceptor fluorescent molecule, and the distance between two molecules is within the range of 10 nm, a […] energy transfer occurs. In the figure, the FAM-Peptide is the donor fluorescent molecule and DiI-EXO is the acceptor fluorescent molecule. […] EXOCP05 is the staining result of exosomes combined with CP05 sequence which is recorded in the prior art Chinese Patent No. CN201510520565.7, and EXOEXP refers to the staining result of the combination of EXP of the present invention and exosomes. […]
sequence,measurement,value
CRHKMWTVKSRL (EXP),co-localization with EXO in cells at 48 hours,still detectable
